Assay results: patent US4652637A, “Steroidal glycolipids” (priority 1985, dated 1987)

Experiments:
[1] = tested on: Pseudomonas aeruginosa (Immunotype 1); assay: In vivo protection against Pseudomonas aeruginosa infection in cyclophosphamide-immunosuppressed CFl female mice (LD50 / protective index); conditions: CY-treated mice, LD50 (CY + test compound) / LD50 (CY alone); for Protective Index (log): Table 3, Pseudomonas aeruginosa, dose and route not given; for P.I. (log): PA, sub cutaneous
Protocol: (§1) Groups of 15-20 CFl female mice (Charles River Breeding, Cambridge, MA) weighing 22-28 gm were injected intraperitoneally (i.p.) with cyclophosphamide (Cytoxan; CY) at 250 mg per kg body weight. One to two hours later they were typically injected again with the test material by the route specified. Four days later, the mice were divided into groups of five, each of which were injected i.p. with a different dilution of a suspension of Pseudomonas aeruginosa (Immunotype 1). The number of survivors was determined periodically and an estimate was made of the number of CFU of Pseudomonas organisms necessary to cause 50% lethality by the cumulative method of L. J. Reed and H. Muench (Am. J. Hygeine 27 (1938) 493-497). A protective index (P.I.) was defined as the LD50 for the mice receiving cyclophosphamide and the test compound divided by the LD50 for the mice receiving cyclophosphamide alone. All control mice were injected with aqueous vehicle in the same route and schedule as the test animals.
(§2) All compounds for dosing were suspended in a sterile medium referred to as "aqueous vehicle" which contains 0.9% sodium chloride, 0.5% carboxymethyl cellulose, 0.4% Tween 80, and 0.9% benzyl alcohol unless otherwise stated. Test materials were evaluated via subcutaneous (s.c.), i.p., intramuscular (i.m.), orally (p.o.). and intravenous (i.v.) routes of administration. The initial test dose was 40 mg per kg per mouse, with each active compound subsequently titrated below this level.
(§3) All bacteria were inoculated i.p. to induce infection in the in vivo experiments. Candida albicans, however, was administered i.v. Bacteria cultures were harvested in the log phase, washed with phosphate buffered saline (PBS, and resuspended in PBS containing 10% glycerol for freezing at -70° C. in 1 ml aliquots. The number of […] (cfu's) was determined before and after freezing. Frozen cultures were routinely thawed and diluted in sterile PBS just prior to inoculation. Viable cell counts were routinely done on thawed cultures the day of challenge to determine the number of cfu's. Candida albicans was stored in distilled water at room temperature. Viable cell counts were determined the day of testing.
(§4) The testing and results of 6-(5-cholesten-3β-yloxy)hexyl-1-thio-β-D-mannopyranoside (Example 2) against various orgaisms is shown in Table 2.

Staphylococcus aureus = assay: In vivo protection against Staphylococcus aureus infection in cyclophosphamide-immunosuppressed mice (LD50 / protective index); conditions: SA, CY-treated mice, sub cutaneous, LD50 (CY + test compound) / LD50 (CY alone)
Protocol: as §1, §2, §3, §4

Candida albicans = assay: In vivo protection against Candida albicans infection in cyclophosphamide-immunosuppressed mice (LD50 / protective index); conditions: CA i.v., CY-treated mice, sub cutaneous, LD50 (CY + test compound) / LD50 (CY alone)
Protocol: as §1
as §2, with “The initial test dose was 40 mg per kg per mouse, with each active compound subsequently titrated below this level.” left out
as §3, with “testing. […]” for “testing.”

## COC(=O)[C@H]1CC[C@H]2[C@@H]3CC=C4C[C@@H](OCCCCCCS[C@@H]5O[C@H](CO)[C@@H](O)[C@H](O)[C@@H]5O)CC[C@]4(C)[C@H]3CC[C@]12C [Example 8, 6-(17β-Carbomethoxy-androst-5-en-3β-yloxy)hexyl 1-thio-β-D-mannopyranoside]
[1]
  Protective Index (log): 2.5 log

## CC(=O)N[C@@H](C)[C@H]1CC[C@H]2[C@@H]3CC=C4C[C@@H](OCCCCCCS[C@@H]5O[C@H](CO)[C@@H](O)[C@H](O)[C@@H]5O)CC[C@]4(C)[C@H]3CC[C@]12C [Example 11, 6-(20S-Acetamido-pregn-5-en-3β-yloxy)hexyl 1-thio-β-D-mannopyranoside]
[1]
  Protective Index (log): 3.0 log

## CC(C)CCC[C@@H](C)[C@H]1CC[C@H]2[C@@H]3CC=C4C[C@@H](OCCOCCS[C@@H]5O[C@H](CO)[C@@H](O)[C@H](O)[C@@H]5O)CC[C@]4(C)[C@H]3CC[C@]12C [Example 5, 2-(2-(5-Cholesten-3β-yloxy)ethoxy)ethyl 1-thio-β-D-mannopyranoside]
[1]
  Protective Index (log): 1.7 log

## CC(C)CCC[C@@H](C)[C@H]1CC[C@H]2[C@@H]3CC=C4C[C@@H](OCCCCCCS[C@@H]5O[C@H](CO)[C@@H](O)[C@H](O)[C@@H]5O)CC[C@]4(C)[C@H]3CC[C@]12C [Example 2, 6-(5-Cholesten-3β-yloxy)hexyl 1-thio-β-D-mannopyranoside]
Staphylococcus aureus; 5 mg/kg
  P.I. (log): 0.99 log
Staphylococcus aureus; 10 mg/kg
  P.I. (log): 1.47 log
Staphylococcus aureus; 20 mg/kg
  P.I. (log): 1.83 log
Staphylococcus aureus; 40 mg/kg
  P.I. (log): 2.66 log
[1]; 10 mg/kg
  P.I. (log): 2.75 log
[1]; 20 mg/kg
  P.I. (log): 3.75 log
[1]; 40 mg/kg
  P.I. (log): 4.33 log
[1]; 80 mg/kg
  P.I. (log): 4.66 log
[1]
  Protective Index (log): 4.5 log
Candida albicans; 10 mg/kg
  P.I. (log): 0.67 log
Candida albicans; 20 mg/kg
  P.I. (log): 0.81 log
Candida albicans; 40 mg/kg
  P.I. (log): 1 log

## CC(C)CCC[C@@H](C)[C@H]1CC[C@H]2[C@@H]3CC=C4C[C@@H](OCCCCCCS[C@H]5O[C@@H](C)[C@@H](O)[C@@H](O)[C@@H]5O)CC[C@]4(C)[C@H]3CC[C@]12C [Example 4, 6-(5-Cholesten-3β-yloxy)hexyl 1-thio-β-L-fucopyranoside]
[1]
  Protective Index (log): 1.3 log

## CC[C@H](C=C[C@@H](C)[C@H]1CC[C@H]2[C@@H]3CC=C4C[C@@H](OCCCCCCS[C@@H]5O[C@H](CO)[C@@H](O)[C@H](O)[C@@H]5O)CC[C@]4(C)[C@H]3CC[C@]12C)C(C)C [Example 6, 6-(Stigmasta-5,22-dien-3β-yloxy)hexyl 1-thio-β-D-mannopyranoside]
[1]
  Protective Index (log): 2.0 log

## CC(C)CCC[C@@H](C)[C@H]1CC[C@H]2[C@@H]3CC=C4C[C@@H](OCCCCCCS[C@H]5O[C@H](CO)[C@@H](O)[C@H](O)[C@@H]5O)CC[C@]4(C)[C@H]3CC[C@]12C [Example 1, 6-(5-Cholesten-3β-yloxy)hexyl 1-thio-α-D-mannopyranoside]
[1]
  Protective Index (log): 1.5 log

## CC(O)[C@H]1CC[C@H]2[C@@H]3CC=C4C[C@@H](OCCCCCCS[C@@H]5O[C@H](CO)[C@@H](O)[C@H](O)[C@@H]5O)CC[C@]4(C)[C@H]3CC[C@]12C (stereo partly drawn) [Example 10, 6-(Pregn-5-en-20-ol-3β-yloxy)hexyl 1-thio-β-D-mannopyranoside]
[1]
  Protective Index (log): 1.3 log

## CC(=O)N[C@H](C)[C@H]1CC[C@H]2[C@@H]3CC=C4C[C@@H](OCCCCCCS[C@@H]5O[C@H](CO)[C@@H](O)[C@H](O)[C@@H]5O)CC[C@]4(C)[C@H]3CC[C@]12C [Example 12, 6-(20R-Acetamido-pregn-5-en-3β-yloxy)hexyl 1-thio-β-D-mannopyranoside]
[1]
  Protective Index (log): 2.6 log

## C[C@]12CC[C@H]3[C@@H](CC=C4C[C@@H](OCCCCCCS[C@@H]5O[C@H](CO)[C@@H](O)[C@H](O)[C@@H]5O)CC[C@@]43C)[C@@H]1CC[C@@H]2C(N)=O [Example 9, 6-(17β-Carbamido-androst-5-en-3β-yloxy)hexyl 1-thio-β-D-mannopyranoside]
[1]
  Protective Index (log): 2.5 log

## CC(C)CCC[C@@H](C)[C@H]1CC[C@H]2[C@@H]3CC=C4C[C@@H](OCCCCCCS[C@@H]5O[C@@H](C)[C@@H](O)[C@@H](O)[C@@H]5O)CC[C@]4(C)[C@H]3CC[C@]12C [Example 3, 6-(5-Cholesten-3β-yloxy)hexyl 1-thio-α-L-fucopyranoside]
[1]
  Protective Index (log): 2.8 log

## CC(=O)[C@H]1CC[C@H]2[C@@H]3CC=C4C[C@@H](OCCCCCCS[C@@H]5O[C@H](CO)[C@@H](O)[C@H](O)[C@@H]5O)CC[C@]4(C)[C@H]3CC[C@]12C [Example 7, 6-(Pregn-5-en-20-one-3β-yloxy)hexyl 1-thio-βD-mannopyranoside]
[1]
  Protective Index (log): 3.5 log
